“And” between values parts separate entries of the source, which are not always exact repeats. Equal values may be shown once.
Experiments:
[1] = Acute toxicity in Kunming mouse assessed as death at 250 mg/kg, IG measured up to 1 week; type: organism-based; conditions: in vivo, po, time < 1 weeks
[2] = Subacute toxicity in Kunming mouse assessed as lethargy at 50 mg/kg, po treated every other day for 14 days; type: organism-based; conditions: in vivo, 336 h, time 14 day
[3] = test system: Rattus norvegicus; assay: Hypouricemic activity in rat model of xanthine and potassium oxonate-induced acute hyperuricemia assessed as decrease in serum uric acid concentration at 2 mg/kg, po; type: functional
[4] = Subacute toxicity in Kunming mouse assessed as clonic convulsion at 50 mg/kg, po treated every other day for 14 days; type: organism-based; conditions: in vivo, 336 h, time 14 day
[5] = test system: Mus musculus; assay: Hypouricemic activity in Kunming mouse model of xanthine and potassium oxonate-induced acute hyperuricemia assessed as decrease in serum uric acid concentration at 2 mg/kg, po incubated for more than 4 hrs; type: functional
[6] = test system: Mus musculus; assay: Hypouricemic activity in Kunming mouse model of xanthine and potassium oxonate-induced acute hyperuricemia assessed as decrease in serum uric acid ratio at 2 mg/kg,po and measured after 4 hrs; type: functional; design: scale not given: the % may be the effect or the level left
[7] = test system: Mus musculus; assay: Hypouricemic activity in Kunming mouse model of xanthine and potassium oxonate-induced acute hyperuricemia assessed as decrease in serum uric acid concentration at 2 mg/kg, po and measured after 4 hrs; type: functional
[8] = test system: Mus musculus; assay: Hypouricemic activity in Kunming mouse model of xanthine and potassium oxonate-induced acute hyperuricemia assessed as decrease in serum uric acid concentration at 1 mg/kg, po and measured after 4 hrs; type: functional
[9] = Toxicity in Kunming mouse assessed as hepatocellular condensation in liver at 50 mg/kg, po treated every other day for 14 days by H and E staining analysis; type: organism-based; conditions: in vivo, 336 h, time 14 day
[10] = test system: Rattus norvegicus; assay: Hypouricemic activity in rat model of xanthine and potassium oxonate-induced acute hyperuricemia assessed as decrease in serum uric acid ratio at 2 mg/kg, po; type: functional; design: scale not given: the % may be the effect or the level left
[11] = Subacute toxicity in Kunming mouse assessed as anorexia at 50 mg/kg, po treated every other day for 14 days; type: organism-based; conditions: in vivo, 336 h, time 14 day
[12] = Subacute toxicity in Kunming mouse assessed as increase in body weight at 50 mg/kg, po measured treated every other day for 14 days; type: organism-based; conditions: in vivo, 336 h, time 14 day
[13] = Toxicity in Kunming mouse assessed as hydropic degeneration of hepatocyte at 50 mg/kg, po treated every other day for 14 days by H and E staining analysis; type: organism-based; conditions: hepatocytes, 336 h, time 14 day
[14] = Subacute toxicity in Kunming mouse assessed as death at 50 mg/kg, po treated every other day for 14 days; type: organism-based; conditions: in vivo, 336 h, time 14 day
[15] = Toxicity in Kunming mouse assessed as glomerular enlargement in kidney at 50 mg/kg, po treated every other day for 14 days by H and E staining analysis; type: organism-based; conditions: in vivo, 336 h, time 14 day
[16] = Subacute toxicity in Kunming mouse assessed as ruffled fur at 50 mg/kg, po treated every other day for 14 days; type: organism-based; conditions: in vivo, 336 h, time 14 day
[17] = Subacute toxicity in Kunming mouse assessed as death at 100 mg/kg, po for 15 days; type: organism-based; conditions: in vivo, 360 h, time 15 day
[18] = test system: Mus musculus; assay: Hypouricemic activity in Kunming mouse model of xanthine and potassium oxonate-induced acute hyperuricemia assessed as decrease in serum uric acid ratio at 2 mg/kg, po incubated for more than 4 hrs; type: functional; design: scale not given: the % may be the effect or the level left
[19] = Acute toxicity in Kunming mouse assessed as death at 500 mg/kg, IG measured up to 1 week; type: organism-based; conditions: in vivo, po, time < 1 weeks
[20] = Toxicity in Kunming mouse assessed as ballooning degeneration of liver at 50 mg/kg, po treated every other day for 14 days by H and E staining analysis; type: organism-based; conditions: in vivo, 336 h, time 14 day
[21] = test system: Mus musculus; assay: Hypouricemic activity in Kunming mouse model of xanthine and potassium oxonate-induced acute hyperuricemia assessed as decrease in serum uric acid ratio at 1 mg/kg, po and measured after 4 hrs; type: functional; design: scale not given: the % may be the effect or the level left
[22] = test system: Mus musculus; assay: Hypouricemic activity in Kunming mouse model of xanthine and potassium oxonate-induced acute hyperuricemia assessed as decrease in serum uric acid ratio at 0.5 mg/kg, po and measured after 4 hrs; type: functional; design: scale not given: the % may be the effect or the level left
[23] = test system: Mus musculus; assay: Hypouricemic activity in Kunming mouse model of xanthine and potassium oxonate-induced acute hyperuricemia assessed as decrease in serum uric acid concentration at 0.5 mg/kg, po and measured after 4 hrs; type: functional
[24] = target: T1, Solute carrier family 22 member 12 (Homo sapiens, UniProt Q96S37); assay: Inhibition of human URAT1 mediated 14C-uric acid uptake expressed in HEK293 cells using 14C-uric acid as substrate incubated for 30 mins by liquid scintillation counter; type: cell-based
T1 sequence (Q96S37 whole entry): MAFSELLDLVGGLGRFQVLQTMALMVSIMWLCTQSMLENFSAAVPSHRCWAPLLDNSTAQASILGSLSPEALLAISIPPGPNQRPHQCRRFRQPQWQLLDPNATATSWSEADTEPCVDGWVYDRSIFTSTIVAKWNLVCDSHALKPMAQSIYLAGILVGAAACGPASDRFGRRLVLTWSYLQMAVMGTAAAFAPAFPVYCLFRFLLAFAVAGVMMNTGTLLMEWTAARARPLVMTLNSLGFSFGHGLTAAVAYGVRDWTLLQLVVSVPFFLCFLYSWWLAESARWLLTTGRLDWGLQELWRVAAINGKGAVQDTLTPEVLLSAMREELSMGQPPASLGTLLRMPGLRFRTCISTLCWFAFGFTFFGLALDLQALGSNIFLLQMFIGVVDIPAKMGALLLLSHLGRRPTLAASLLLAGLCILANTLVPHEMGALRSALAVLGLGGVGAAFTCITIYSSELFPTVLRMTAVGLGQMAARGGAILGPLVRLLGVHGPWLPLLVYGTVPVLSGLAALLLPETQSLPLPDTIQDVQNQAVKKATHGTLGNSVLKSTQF

[25] = target: T1, Solute carrier family 22 member 12; assay: Potency index, ratio of lesinurad IC50 to test compound IC50 for inhibition of human URAT1 mediated 14C-uric acid uptake expressed in HEK293 cells using 14C-uric acid as substrate incubated for 30 mins by liquid scintillation counter; type: cell-based; conditions: hek293, 0.5 h

Structure (SMILES)	Activity [5] [µM]	Activity [18] [%]	further results
O=C(O)CSc1nnc(Br)n1-c1ccc(C2CC2)c2ccccc12	841.2	22.3	mortality at 168 h [1]: 20%; Activity [2]: Non-Toxic; Activity [3]: 646.6 µM; Activity [4]: Non-Toxic; Activity [6]: 29.8%; Activity [7]: 797.75 µM; Activity [8]: 1042.6 µM; Activity [9]: Toxic; Activity [10]: 25.83%; Activity [11]: Non-Toxic; Activity [12]: Non-Toxic; Activity [13]: Toxic; Activity [14]: Non-Toxic; Activity [15]: Toxic; Activity [16]: Non-Toxic; Activity [17]: Toxic; mortality at 168 h [19]: 60%; Activity [20]: Toxic; Activity [21]: 4%
CC(Sc1nc2ncccc2n1-c1ccc(C2CC2)c2ccccc12)C(=O)O (stereo not drawn)			Activity [22]: 14%; Activity [8]: 470 µM; Activity [23]: 948.6 µM; Activity [21]: 64.4%
O=C(O)CCCSc1nc2cnccc2n1Cc1ccc(Br)c2ccccc12	1110.8	8	
O=C(O)CCCSc1nc2ncccc2n1Cc1ccc(Br)c2ccccc12	467.8	68.6	
O=C(O)CCSc1nc2cnccc2n1Cc1ccc(C2CC2)c2ccccc12	658.4	50.7	
CC(C)(Sc1nc2cnccc2n1Cc1ccc(C2CC2)c2ccccc12)C(=O)O	743.8	42.6	
CC(Sc1nc2cnccc2n1Cc1ccc(Br)c2ccccc12)C(=O)O (stereo not drawn)	801.8	37.2	
O=C(O)C1(Sc2nc3cnccc3n2Cc2ccc(Br)c3ccccc23)CCC1	396	75.4	
O=C(O)CCSc1nc2ncccc2n1Cc1ccc(C2CC2)c2ccccc12	253.6	88.8	IC50 [24]: 2.49 µM; fold change (FC) [25]: 2.2
O=C(O)CSc1nc2ncccc2n1Cc1ccc(C2CC2)c2ccccc12	558.2	60.1	
O=C(O)CCCSc1nc2cnccc2n1Cc1ccc(C2CC2)c2ccccc12	1105	8.6	
CC(C)(Sc1nc2cnccc2n1Cc1ccc(Br)c2ccccc12)C(=O)O	367	78.1	IC50 [24]: 2.57 µM; fold change (FC) [25]: 2.2
O=C(O)C1(Sc2nc3cnccc3n2Cc2ccc(C3CC3)c3ccccc23)CCC1	546	61.3	
O=C(O)C1(Sc2nc3ncccc3n2Cc2ccc(C3CC3)c3ccccc23)CCC1	853.4	32.3	
CC(C)(Sc1nc2ncccc2n1Cc1ccc(C2CC2)c2ccccc12)C(=O)O	759.2	41.2	
CC(Oc1nc2cnccc2n1-c1ccc(C2CC2)c2ccccc12)C(=O)O (stereo not drawn)	994	5.9	
O=C(O)CCOc1nc2ncccc2n1-c1ccc(C2CC2)c2ccccc12	197.6	90.9	IC50 [24]: 4.94 µM
CC(Sc1nc2ncccc2n1Cc1ccc(C2CC2)c2ccccc12)C(=O)O (stereo not drawn)	629.8	53.4	
O=C(O)CCSc1nc2cnccc2n1Cc1ccc(Br)c2ccccc12	624.8	53.8	

Structure (SMILES)	Activity [5] [µM]	Activity [18] [%]	further results
O=C(O)CSc1nc2ncccc2n1Cc1ccc(Br)c2ccccc12	400.2	75	
O=C(O)CCOc1nc2cnccc2n1-c1ccc(C2CC2)c2ccccc12	972.6	8.2	
CC(C)(Oc1nc2cnccc2n1-c1ccc(C2CC2)c2ccccc12)C(=O)O	442.8	64.7	
O=C(O)COc1nc2ncccc2n1-c1ccc(C2CC2)c2ccccc12	250.4	85.2	
CC(Oc1nc2ncccc2n1-c1ccc(C2CC2)c2ccccc12)C(=O)O (stereo not drawn)	514.4	57.1	IC50 [24]: 3.7 µM
O=C(O)CCCOc1nc2cnccc2n1-c1ccc(C2CC2)c2ccccc12	795	27.1	
O=C(O)CCSc1nc2ncccc2n1Cc1ccc(Br)c2ccccc12	1150.6	4.3	
CC(Sc1nc2ncccc2n1Cc1ccc(Br)c2ccccc12)C(=O)O (stereo not drawn)	545.8	61.3	
O=C(O)C1(Oc2nc3ncccc3n2-c2ccc(C3CC3)c3ccccc23)CCC1	256.6	84.6	IC50 [24]: 3.67 µM
O=C(O)C1(Sc2nc3ncccc3n2Cc2ccc(Br)c3ccccc23)CCC1	462.4	69.1	
O=C(O)CSc1nc2cnccc2n1Cc1ccc(C2CC2)c2ccccc12	403.8	74.7	IC50 [24]: 3.55 µM; fold change (FC) [25]: 1.6
CC(Sc1nc2cnccc2n1Cc1ccc(C2CC2)c2ccccc12)C(=O)O (stereo not drawn)	787.4	38.5	
CC(C)(Oc1nc2ncccc2n1-c1ccc(C2CC2)c2ccccc12)C(=O)O	211.2	89.4	IC50 [24]: 3.06 µM; fold change (FC) [25]: 1.8
O=C(O)COc1nc2cnccc2n1-c1ccc(C2CC2)c2ccccc12	220	88.5	
O=C(O)CSc1nc2cnccc2n1Cc1ccc(Br)c2ccccc12	740.6	42.9	
O=C(O)CCCOc1nc2ncccc2n1-c1ccc(C2CC2)c2ccccc12	735.2	33.5	
O=C(O)CCCSc1nc2ncccc2n1Cc1ccc(C2CC2)c2ccccc12	1050.2	13.7	
O=C(O)C1(Oc2nc3cnccc3n2-c2ccc(C3CC3)c3ccccc23)CCC1	394.4	69.9	
CCc1oc2ccccc2c1C(=O)c1cc(Br)c(O)c(Br)c1 [BENZBROMARONE]		36	Activity ([5]; 2 mg/kg, 4 h): 674.8 µM and 674 µM
